Entries after “also recorded” stand apart in the source; their conditions may differ. Where two headings read alike, the source gives them in different places.
What was measured:
[1] = system: suspension-cultured corn cells (var. Black Mexican Sweet); experiment: Growth inhibition of suspension-cultured corn cells; format: cell-based, corn (maize); conditions: for growth inhibition activity (comparison in words): four days
excised wheat embryos = experiment: Wheat embryo germination inhibition; format: in vivo, Triticum aestivum L. cv. Clark's Cream; conditions: for germination inhibitory activity, wheat embryos (in words): in vivo
Method: Grains of soft white wheat (Triticum aestivum L. cv. Clark's Cream) were used. For bioassay, embryos with some adhering endosperm and pericarp attached were cut from the grains with a razor blade. Analogs were prepared by dissolving into a minimal amount of DMSO to prepare a 0.1 M solution, and then diluted with […], pH 5.8, to 0.01, 0.1, 1, 10 and 100 μM. For each analog concentration six replicate germination assays were conducted on 10 embryos each at 30° C. Embryos were incubated in Petri dishes (100×15 mm) containing 6 ml solution.

[2] = system: ABA-responsive cor6.6 promoter; experiment: ABA-inducible gene expression (GUS activity) in transgenic tobacco seedlings containing Pcor6.6-GUS; format: in vivo, transgenic tobacco (promoter from Arabidopsis thaliana)
Source text: The results shown are an average of duplicate assays on samples containing 34 seedlings.
The results shown are an average of duplicate samples containing cotyledons from 34 seedlings.

α-amylase activity = conditions: Nakano et al. 1995; cited from earlier work
lettuce seed = conditions: Nakano et al. 1995; cited from earlier work
[3] = system: stomatal opening of spiderwort; conditions: Nakano et al. 1995, cited from earlier work
rice seedling leaves = conditions: Nakano et al. 1995; cited from earlier work
[4] = system: suspension-cultured corn cells; experiment: Medium pH changes in corn cell suspension cultures; format: cell-based, corn (maize); conditions: 10 μM solution
Method: Cell growth was measured by the change in fresh weight over a 4-day period, as previously described (Balsevich et al.^6, 1994). The medium pH changes associated with addition of (+)-ABA and (+)-8'-methylene ABA were also measured as described by Balsevich et al.^6, (1994).

wheat seedlings = experiment: Transpiration in wheat seedlings; format: in vivo, Triticum aestivum L. cv Katepwa; conditions: in vivo
Source text: ABA is a key signal molecule involved in regulating transpiration in plants (W. J. Davies T. A. Mansfield 1988 Abscisic acid and drought resistance in plants ISI Atlas of Science: Animal and Plant Sciences 0894-3761 p. 263-269). […] This difference in activity is shown in FIG. 4 in which the % transpiration effected by the (+)-forms of methyl esters of ABA (214) , 8'-methyl (370) and 8'-methylene ABA (357) are compared. The structures are as follows: [drawing 13] Seed Germination
The transpiration rate of 6 to 10 day old wheat seedlings (Triticum aestivum L. cv Katepwa) was measured as previously described (Rose et al.^7, 1996 incorporated herein by reference). Antitranspirant activity of the analogs (prepared as a 1% ethanol solution in water) was measured over a range of concentrations to determine the concentration where the transpiration rate of the wheat seedling is reduced by 50%. The transpiration rate (μMol H2 O/cm^2 s) was calculated and then given as a percentage of the initial transpiration rate of the plant (typically 0.28-0.35 μMol H2 O/cm^2 s), corrected for the effect of the control (1% ethanol).
ABA is a key signal molecule involved in regulating transpiration in plants. We had previously determined that esters were as active as acids in this assay (data not shown) so the effect of the methyl esters of natural ABA (+)-^8 '-methylene ABA and 8'-methyl ABA on transpiration in intact wheat seedlings was compared three hours after application. […] The difference in responses may be due to reduced uptake of the 8'-methyl ABA in the intact wheat seedling.

cress seed = experiment: Cress seed germination inhibition; format: in vivo; conditions: for germination of cress seed: 5 μM (printed 5 M)
Method: The experimental conditions were as follows: 100 seeds are placed on a 9 cm Whatman no. 1 filter paper in a petri dish and treated with 5 ml of solution.
The final concentration of the ethanol in the assay solutions was <0.05%. Assays were conducted with 100 seeds in each Petri dish and performed in triplicate. The germination measurements were based on the growth of the primary root. A seed was considered germinated when the radical was approximately the same length as the seed.

corn cells = experiment: Depletion (persistence) from corn cell culture media; format: in vitro ADME, corn (maize); conditions: corn, corn cell culture medium, 100 µM
Method: Ethanolic stock solutions of (+)-ABA, (+)-8'-methylene ABA and (+)-8'-methyl ABA were added to flasks containing 0.2 g of corn cells and 10 ml of culture medium to obtain a final concentration of 100 μM of hormone or analog. Aliquots of medium (100 μl) were removed at intervals and analyzed for ABA or ABA analog content by HPLC as described previously (Balsevich et al.^6, 1994). Each compound was inoculated into 3 flasks and duplicate samples were removed at the indicated time points. The corn cells were used 1 or 2 days after subculturing.

[5] = system: Black Mexican Sweet maize cells; experiment: Metabolites from maize suspension cells; format: in vitro ADME; conditions: 100 μM, 90 h
Method: Eighteen g of Black Mexican Sweet maize cells were subcultured into a 1L flask containing 500 ml sterile medium as described previously (Balsevich et al.^6, 1994). […] At the end of the culture period, the cells were removed by filtration. The filtrate was frozen until processed for isolation.
The metabolites were extracted from the culture filtrate by a chromatographic procedure using Supelco Amberlite XAD-2 resin (Balsevich et al. 6, 1994). The crude product isolated from the resin was partially purified by preparative TLC (silica gel 60 GF254, 20 cm×20 cm×1 mm, toluene-EtOAc-HOAc 25:15:2 as eluent), giving two isomeric acids, The acids were separately reacted with diazomethane, and then further purified by HPLC as their methyl esters yielding approx. 0.5 mg of each metabolite.

[6] = ABA-like (hormonal) activity in various assays; design: species or system plants; conditions: wheat and cress
[7] = system: suspension-cultured corn cells; conditions: Balsevich et al 1994; cited from earlier work
[8] = background; cited from earlier work
[9] = system: Interior spruce seedlings; experiment: Drought avoidance of transplanted spruce seedlings; format: in vivo
Source text: (§1) The ABA analog was applied as a spray-root drench that stimulated application through a nursery irrigation system. Seedlings with intact root-soil plugs were placed in a container, and ABA analog treatments were applied as a top drench. Treated seedlings were kept in the large container where the treatment flow-through was allowed to be re-absorbed into the plugs over a two day period. This ensured that all of the treatment was taken up by the root plugs and was available to seedlings. During testing, root-soil plugs were kept intact, enabling ABA analog treatments to be retained in close contact with the root system.
(§2) For this testing program, ABA analog #365 was applied at 10^-4, […] and 10^-3 M concentrations. Analogs were dissolved in an acetone solution (@ 1%) to prepare ABA analog treatments. In addition, there was a control treatment of acetone only @ 1%. The analog treatments were applied one time, two days before the start of experimental measurements. Each seedling received approximately 20 ml of either an analog or a control solution.
Just after treatment application, seedlings (n=75) were put through a rapid eight to fifteen day drought. Seedlings were watered to saturation during ABA analog application. After 24 to 48 hours, when all of the ABA analog solution was absorbed by the seedling root plug, root systems were enclosed in a plastic bag and placed in a darkened chamber with the shoot systems exposed to the above described controlled environment conditions. Seedlings were allowed to dry out through shoot transpiration. Gas exchange parameters (Pn, and gwv) of seedlings (n=8) from each treatment were measured during each daylight period. At each gas exchange measurement time, seedlings were measured with a pressure chamber to determine .psi., Changes in gas exchange parameters and seedling water balance were determined over time.
A study was conducted to determine how the ABA analog influenced seedling response to potentially lethal soil drought. It was hypothesized that ABA analogs limit water use and delay deleterious physiological conditions in seedlings under limited soil water availability. The ABA analog would allow seedlings to avoid a potentially lethal drought stress to survive and have normal morphological development.
Just after treatment application, seedlings (n=75) were put through a rapid drought. Over the drought, seedlings were measured with a pressure chamber to determine .psi..

[10] = system: Interior spruce seedlings; experiment: Growth of transplanted spruce seedlings; format: in vivo
[11] = system: Interior spruce seedlings; experiment: Gas exchange of spruce seedlings; format: in vivo; conditions: optimum conditions; longer periods at higher concentrations (FIGS. 19-21)
Source text: as §1
as §2, with “Each seedling received approximately 20 ml of either an analog or a control solution.” left out
Gas exchange parameters (net photosynthesis (Pn), needle conductance (gwv), water use efficiency-not reported) were determined on the seedlings treated with the ABA analog at each concentration (n=8). […] Gas exchange parameters were assessed 9 times across the first 20 days of the measurement period. Thereafter, gas exchange parameters were periodically assessed at 5 times from day 20 until the 52nd day of the measurement period.

CC[C@@]1(C)CC(=O)C=C(C)[C@]1(O)/C=C/C(C)=C\C(=O)O [(+)-8'-methyl ABA]
growth inhibition activity (comparison in words) [1]: comparable to that produced by (+)-ABA
germination inhibitory activity, wheat embryos (in words) (excised wheat embryos): more active than (+)-ABA
fold weaker than ABA as inducer of GUS ([2]; 24 hours (FIG. 15)): about 3 fold
blocking of GA3 stimulated α-amylase activity (α-amylase activity): nearly as active as (+)-ABA
lettuce seed germination inhibition (lettuce seed): more active than (+)-ABA
activity in stomatal opening [3]: more active than (+)-ABA
activity in stomatal opening ([3]; listed as 8'-methyl analog): only slightly weaker than ABA
activity in elongation of rice seedling leaves (rice seedling leaves): more active than (+)-ABA

C=C[C@@]1(C)CC(=O)C=C(C)[C@]1(O)/C=C/C(C)=C\C(=O)O [(+)-8'-methylene ABA, (+) 8'-methyleneabscisic acid]
inhibition at 0.33 µM ([1]; Zea mays, 96 h, 0.33 μM, four day period, read-out: growth inhibition relative to the control): 64%
IC50 ([1]; Zea mays, 96 h, four days after addition, read-out: concentration required for 50% inhibition of growth): < 330 nM
growth inhibition activity (comparison in words) [1]: stronger growth inhibition activity than (+)-ABA at all tested concentrations; also recorded: more effective than ABA
growth inhibition activity (comparison in words) ([1]; listed as 8'-methylene ABA): the strongest growth inhibition produced by any ABA analog so far
growth inhibition activity (comparison in words) ([1]; listed as (+)-methylene ABA): significantly stronger than either (+)-ABA or (+)-8'-methyl ABA
shift in pH of the medium [4]: causes a comparable shift in pH as that produced by ABA
shift in pH of the medium ([4]; listed as (+)- 8'-methylene ABA): causes as great a shift in pH as ABA
reduction of transpiration (summary in words) (wheat seedlings): more effective than ABA
germination inhibition of cress seed (cress seed; 1 μM): more potent than ABA
germination of cress seed (cress seed): does not germinate
germination of cress seed (cress seed; listed as 8'-Methylene analog): remain dormant
germination inhibition of cress seed (summary in words) (cress seed; in vivo): more effective than ABA
concentration giving equivalent germination inhibition (excised wheat embryos; (+)-8'-methylene ABA versus (+)-ABA (FIG. 12)): 1.0 µM
times more effective than natural ABA, germination inhibition of excised wheat embryos (excised wheat embryos; embryos from dormant wheat grains (FIG. 12)): at least 10 times
germination inhibitory activity, wheat embryos (in words) (excised wheat embryos): more active than (+)-ABA; also recorded: most potent compound over all concentrations and time points; also recorded: more effective than ABA
induction of ABA-responsive gene expression (in words) ([2]; 100 μM, 24 hours): slightly weaker inducer than ABA; also recorded: highly effective in inducing ABA-responsive gene expression
induction of GUS activity ([2]; 200 micromolar, 24 hours, relative to untreated control): strongly induced GUS activity
time by which 50% had disappeared from the medium (corn cells): ~100 h
metabolites identified [5]: two isomeric epoxides
germination inhibition in seeds of both a monocot and a dicot [6]: more effective germination inhibitor in seeds of both a monocot and a dicot

CC(=C/C(=O)O)/C=C/[C@]1(O)[C@@]2(C)CO[C@]1(C)CC(=O)C2 [Phaseic acid, phaseic acid]
shift (elevation) in pH of the medium (literature) [7]: not produced by PA
activity in most assays [8]: little or no activity in most assays

Methyl 8'-methylene ABA [PBI-365]
drought avoidance capability, dependence on treatment concentration ([9]; FIG. 17): improved with higher treatment concentrations
needle conductance ([9]; drought conditions): reduction in needle conductance
seedling water balance ([9]; drought conditions): improved seedling water balance under drought conditions
drought avoidance capability ([9]; range of drought conditions): excellent drought avoidance capability
effect on seedling growth ([10]; moderate and severe drought conditions): no definitive effect on seedling growth
effect on seedling growth ([10]; near lethal drought conditions): positive influence on growth
long term effects on growth ([10]; optimum soil moisture conditions (FIG. 18)): no long term negative effects on growth
duration of reduction in gas exchange capability [11]: one to three
